From the NIST ThermoML archive (doi:10.1021/acs.jced.8b00888)
± gives the expanded uncertainty stated by the source.

Legend:
[1] = Molar enthalpy of transition or fusion; settings: Crystal; DSC
[2] = Crystal; DTA

For `Cc1nc(C)c(C)nc1C` [tetramethylpyrazine], the “Molar enthalpy of transition or fusion” value [1] was 16.4 ± 1.7 kJ/mol and the Normal melting temperature [2] was 85.40 ± 1.1 °C.
